Laboratory results reported in patent publication US20200255838A1, “Selenium Cancer Therapy” (University of Massachusetts, priority 2017, published 2020).

Experiments:
Format in all cases: cell-based
[1] = tested on: MDAMB468 and MDAMB231 cell lines; test: Hydrogen selenide gas toxicity assay; settings: gas from sodium selenide in 10% hydrochloric acid, 96-well plate
Protocol: We developed a novel gas toxicity assay in which hydrogen selenide was produced in one well of a 96-well plate and the toxic effects were measured in an adjacent well. As described, SEPHS2 KO or control KO was achieved via pLENTICRISPR lentiviral transduction, and then cells were subjected to hydrogen selenide gas toxicity. Hydrogen selenide gas was formed by dissolving sodium selenide in an acidic (10% Hydrochloric Acid) solution in the central wells of a 96-well culture plate. SEPHS2 KO and CTRL cells (for MDAMB468 and MDAMB231 cell lines) were pre-seeded at various distances from the source of hydrogen gas toxicity (distances were equal under both conditions). The viability of each set of cells was averaged and relative viability of the SEPHS2 KO cells relative to control KO cells for each cell line are shown in FIG. 8.

U251 cells = test: Selenite toxicity / growth in KO cells
Protocol: FIGS. 2A-D provide evidence that SEPHS2 plays a detoxifying role in U251 GBM cell line. (A) Knockdown of either SEPHS2 or SEPSECS can block selenoprotein expression. (B) However, only SEPHS2 KO has significant toxicity. (C) Model for ‘pushing’ toxicity in which if SEPHS2 plays a detoxifying role, its KO should synergize with increased selenited input. (D) Synergy is indeed seen with 12 uM selenite treatment in conjunction with SEPHS2 KO. Growth is normalized to the already lower growth rate of the SEPHS2 KO cells, thus the bars in asterisks indicate (statistically significant) synergy.
We had classified SEPHS2 as a putative detoxifier as its substrate, selenide, is the most toxic form of selenium^12. The notion of SEPHS2 as a detoxifier has not 1 0 previously been explored, and SEPHS2 is simply known for its enzymatic role (which cannot be replaced by its isoform, SEPHS1^13) as an intermediate step in producing selenocysteine for selenocysteinyl-tRNA production. The selenocysteine producing pathway is a simple and linear pathway starting from dietary selenite—or selenite or other inorganic forms which can be converted to selenite, selenite being the most common form^14,15. Selenite is imported and converted through in an unclear manner to form selenide, which is then metabolized by SEPHS2 to form selenophosphate, accompanied by ATP hydrolysis. […]

GPX4 and SEPHS2 = test: Selenoprotein expression after selenite supplementation of media; settings: selenite supplemented to media

Compound	Viability of SEPHS2 KO cells relative to control KO cells under hydrogen selenide gas [1]	Growth with selenite in conjunction with SEPHS2 KO (U251 cells; 12 uM selenite, U251, growth normalized to SEPHS2 KO cells)	Toxicity of high-dose selenite in SLC7A11 KO cells (U251 cells; 12 μM selenite, U251 cells, both guides against SLC7A11)	Expression of selenoproteins GPX4 and SEPHS2 (GPX4 and SEPHS2)
[SeH2] [hydrogen selenide gas, hydrogen selenide]	hypersensitive			
O=[Se](O)O [selenite]		Synergy	complete rescue	increased expression
